# Source: ChEMBL document CHEMBL2203246, “Design and biological evaluation of imidazo[1,2-a]pyridines as novel and potent ASK1 inhibitors” (Bioorg Med Chem Lett, 2012)
# Calls of active or inactive are those of the source. The calls are words filed in the database; no cut-off is given here.
# What was measured:
# [1] = target: Glycogen synthase kinase-3 beta (Homo sapiens, UniProt P49841); assay: Inhibition of GSK3beta
# [2] = target: Mitogen-activated protein kinase 3 (Homo sapiens, UniProt P27361); assay: Inhibition of ERK1
# Chain of Mitogen-activated protein kinase 3 (P27361 whole entry): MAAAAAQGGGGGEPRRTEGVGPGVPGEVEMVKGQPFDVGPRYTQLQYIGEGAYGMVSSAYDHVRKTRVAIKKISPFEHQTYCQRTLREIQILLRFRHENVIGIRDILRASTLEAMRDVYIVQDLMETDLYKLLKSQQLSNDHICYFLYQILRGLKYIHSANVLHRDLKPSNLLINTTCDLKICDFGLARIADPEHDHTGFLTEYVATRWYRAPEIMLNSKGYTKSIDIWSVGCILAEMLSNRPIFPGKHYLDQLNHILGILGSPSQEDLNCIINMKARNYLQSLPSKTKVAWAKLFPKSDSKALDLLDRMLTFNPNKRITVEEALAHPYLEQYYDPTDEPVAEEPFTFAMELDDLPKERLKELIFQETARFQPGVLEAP
# [3] = target: T1, Inhibitor of nuclear factor kappa-B kinase subunit beta (Homo sapiens, UniProt O14920); assay: Inhibition of IKKbeta
# T1 sequence (O14920 whole entry): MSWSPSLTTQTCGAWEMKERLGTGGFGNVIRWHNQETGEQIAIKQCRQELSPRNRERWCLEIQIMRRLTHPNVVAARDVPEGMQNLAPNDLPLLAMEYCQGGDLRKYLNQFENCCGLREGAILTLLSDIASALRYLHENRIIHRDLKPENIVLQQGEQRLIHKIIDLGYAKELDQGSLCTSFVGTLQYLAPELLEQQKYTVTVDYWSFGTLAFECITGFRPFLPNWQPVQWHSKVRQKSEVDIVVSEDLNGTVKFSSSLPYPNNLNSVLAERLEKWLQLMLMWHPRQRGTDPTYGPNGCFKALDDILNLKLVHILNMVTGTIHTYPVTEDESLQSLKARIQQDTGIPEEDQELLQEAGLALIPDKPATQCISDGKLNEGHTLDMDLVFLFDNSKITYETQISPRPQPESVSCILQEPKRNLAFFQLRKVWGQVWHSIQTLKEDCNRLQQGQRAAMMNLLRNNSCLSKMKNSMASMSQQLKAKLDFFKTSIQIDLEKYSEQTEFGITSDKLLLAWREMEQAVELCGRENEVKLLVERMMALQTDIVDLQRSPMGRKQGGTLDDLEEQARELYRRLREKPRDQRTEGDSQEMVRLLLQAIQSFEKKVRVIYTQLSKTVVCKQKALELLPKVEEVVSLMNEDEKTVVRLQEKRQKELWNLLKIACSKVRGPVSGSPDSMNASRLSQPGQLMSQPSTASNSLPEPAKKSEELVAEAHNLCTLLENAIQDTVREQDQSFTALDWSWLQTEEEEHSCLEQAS
# [4] = target: Mitogen-activated protein kinase 14 (Homo sapiens, UniProt Q16539); assay: Inhibition of p38alpha
# Chain of Mitogen-activated protein kinase 14 (Q16539 whole entry): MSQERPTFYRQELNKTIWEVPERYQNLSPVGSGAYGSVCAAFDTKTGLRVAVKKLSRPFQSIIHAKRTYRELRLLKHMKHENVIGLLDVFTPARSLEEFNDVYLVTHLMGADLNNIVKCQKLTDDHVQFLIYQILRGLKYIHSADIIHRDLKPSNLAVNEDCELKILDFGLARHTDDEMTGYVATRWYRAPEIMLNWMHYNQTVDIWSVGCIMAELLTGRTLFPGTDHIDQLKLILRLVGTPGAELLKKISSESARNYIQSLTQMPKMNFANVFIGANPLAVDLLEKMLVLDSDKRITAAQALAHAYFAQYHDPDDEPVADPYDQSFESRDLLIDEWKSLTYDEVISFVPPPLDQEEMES
# [5] = target: Mitogen-activated protein kinase 8 (Homo sapiens, UniProt P45983); assay: Inhibition of JNK1
# Chain of Mitogen-activated protein kinase 8 (P45983 whole entry): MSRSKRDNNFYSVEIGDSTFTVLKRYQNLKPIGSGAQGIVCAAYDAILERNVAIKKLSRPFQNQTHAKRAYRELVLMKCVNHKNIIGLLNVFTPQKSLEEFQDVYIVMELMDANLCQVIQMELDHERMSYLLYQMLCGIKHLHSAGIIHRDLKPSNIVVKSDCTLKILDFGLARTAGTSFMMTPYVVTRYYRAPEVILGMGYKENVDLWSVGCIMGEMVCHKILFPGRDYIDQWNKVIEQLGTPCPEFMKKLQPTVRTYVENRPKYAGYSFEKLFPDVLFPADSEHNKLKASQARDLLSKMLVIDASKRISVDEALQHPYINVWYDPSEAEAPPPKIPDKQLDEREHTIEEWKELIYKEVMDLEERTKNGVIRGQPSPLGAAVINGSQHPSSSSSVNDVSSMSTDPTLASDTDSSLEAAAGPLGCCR
# [6] = target: Serine/threonine-protein kinase B-raf (Homo sapiens, UniProt P15056); assay: Inhibition of BRAF
# Chain of Serine/threonine-protein kinase B-raf (P15056 whole entry): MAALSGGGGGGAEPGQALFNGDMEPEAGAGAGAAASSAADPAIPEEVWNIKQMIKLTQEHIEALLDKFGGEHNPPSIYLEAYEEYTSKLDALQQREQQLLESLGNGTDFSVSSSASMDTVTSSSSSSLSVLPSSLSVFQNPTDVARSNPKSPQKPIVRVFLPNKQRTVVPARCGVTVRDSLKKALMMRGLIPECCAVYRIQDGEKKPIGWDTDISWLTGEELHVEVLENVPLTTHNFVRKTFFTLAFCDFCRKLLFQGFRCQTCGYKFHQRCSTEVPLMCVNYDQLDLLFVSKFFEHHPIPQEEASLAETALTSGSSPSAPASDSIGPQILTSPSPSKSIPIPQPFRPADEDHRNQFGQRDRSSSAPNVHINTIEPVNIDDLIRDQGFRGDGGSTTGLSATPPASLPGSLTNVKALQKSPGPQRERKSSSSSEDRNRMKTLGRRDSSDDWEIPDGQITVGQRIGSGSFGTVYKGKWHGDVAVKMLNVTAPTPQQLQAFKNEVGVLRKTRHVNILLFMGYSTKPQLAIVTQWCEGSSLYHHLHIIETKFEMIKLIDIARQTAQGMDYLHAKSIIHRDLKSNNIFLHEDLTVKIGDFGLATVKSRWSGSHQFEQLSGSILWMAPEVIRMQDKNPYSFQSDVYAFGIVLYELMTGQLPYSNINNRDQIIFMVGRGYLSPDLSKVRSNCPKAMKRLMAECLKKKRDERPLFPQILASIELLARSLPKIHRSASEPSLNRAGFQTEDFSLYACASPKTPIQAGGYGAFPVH
# [7] = target: Protein kinase C theta type (Homo sapiens, UniProt Q04759); assay: Inhibition of PKCtheta
# Chain of Protein kinase C theta type (Q04759 whole entry): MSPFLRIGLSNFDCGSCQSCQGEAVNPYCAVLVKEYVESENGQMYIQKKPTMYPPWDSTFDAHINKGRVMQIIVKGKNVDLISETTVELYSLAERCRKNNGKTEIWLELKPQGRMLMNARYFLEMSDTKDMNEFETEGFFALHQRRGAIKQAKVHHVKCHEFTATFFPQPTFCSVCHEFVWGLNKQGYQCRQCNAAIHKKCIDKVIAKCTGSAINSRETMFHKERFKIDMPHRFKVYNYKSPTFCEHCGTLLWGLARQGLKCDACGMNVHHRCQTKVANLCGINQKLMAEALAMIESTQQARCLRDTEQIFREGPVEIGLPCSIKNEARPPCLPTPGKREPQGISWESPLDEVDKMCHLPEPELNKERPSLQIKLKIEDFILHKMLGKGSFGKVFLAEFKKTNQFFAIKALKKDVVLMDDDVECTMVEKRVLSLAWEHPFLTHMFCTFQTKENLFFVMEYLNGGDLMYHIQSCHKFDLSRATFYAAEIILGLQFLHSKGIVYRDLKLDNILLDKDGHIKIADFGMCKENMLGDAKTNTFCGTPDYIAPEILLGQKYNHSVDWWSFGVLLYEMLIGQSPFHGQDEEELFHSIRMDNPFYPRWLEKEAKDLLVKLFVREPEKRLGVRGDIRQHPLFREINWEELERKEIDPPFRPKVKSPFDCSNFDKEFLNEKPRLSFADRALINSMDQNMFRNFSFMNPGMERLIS
# [8] = target: T2, Mitogen-activated protein kinase kinase kinase 6 (Homo sapiens, UniProt O95382); assay: Inhibition of ASK2
# T2 sequence (O95382 whole entry): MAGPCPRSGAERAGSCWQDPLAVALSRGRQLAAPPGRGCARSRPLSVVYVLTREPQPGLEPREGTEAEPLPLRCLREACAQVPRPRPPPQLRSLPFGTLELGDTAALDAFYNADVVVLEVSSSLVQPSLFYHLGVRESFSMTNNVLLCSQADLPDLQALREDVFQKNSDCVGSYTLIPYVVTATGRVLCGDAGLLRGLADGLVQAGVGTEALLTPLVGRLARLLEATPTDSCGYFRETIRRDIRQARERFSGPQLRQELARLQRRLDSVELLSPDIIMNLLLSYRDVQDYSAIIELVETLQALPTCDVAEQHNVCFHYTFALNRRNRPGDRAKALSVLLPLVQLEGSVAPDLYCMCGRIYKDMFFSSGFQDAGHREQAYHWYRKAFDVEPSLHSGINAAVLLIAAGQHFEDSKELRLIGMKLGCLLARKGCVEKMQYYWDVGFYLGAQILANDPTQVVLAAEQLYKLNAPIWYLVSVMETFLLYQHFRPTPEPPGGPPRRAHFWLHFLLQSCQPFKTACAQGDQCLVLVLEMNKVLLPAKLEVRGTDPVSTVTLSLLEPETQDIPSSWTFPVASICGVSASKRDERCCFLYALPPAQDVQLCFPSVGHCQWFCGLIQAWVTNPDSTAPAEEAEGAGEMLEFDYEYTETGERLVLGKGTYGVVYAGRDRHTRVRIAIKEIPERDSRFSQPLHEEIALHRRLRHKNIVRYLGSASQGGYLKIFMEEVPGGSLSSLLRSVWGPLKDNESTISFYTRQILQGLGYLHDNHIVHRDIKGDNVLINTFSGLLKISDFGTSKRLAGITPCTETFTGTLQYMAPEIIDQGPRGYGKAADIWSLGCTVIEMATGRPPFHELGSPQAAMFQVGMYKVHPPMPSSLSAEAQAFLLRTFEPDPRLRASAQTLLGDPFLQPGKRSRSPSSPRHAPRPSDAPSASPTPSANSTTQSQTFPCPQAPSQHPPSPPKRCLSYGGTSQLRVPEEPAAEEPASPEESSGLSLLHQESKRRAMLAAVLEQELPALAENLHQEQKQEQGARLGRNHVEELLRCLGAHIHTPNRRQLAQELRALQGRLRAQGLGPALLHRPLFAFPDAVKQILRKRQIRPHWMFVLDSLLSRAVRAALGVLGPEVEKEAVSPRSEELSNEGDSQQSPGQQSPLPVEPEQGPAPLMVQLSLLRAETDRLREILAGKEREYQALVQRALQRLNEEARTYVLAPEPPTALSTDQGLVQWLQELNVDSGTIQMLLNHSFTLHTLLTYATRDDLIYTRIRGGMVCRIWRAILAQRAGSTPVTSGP
# [9] = target: Mitogen-activated protein kinase kinase kinase 1 (Homo sapiens, UniProt Q13233); assay: Inhibition of MEKK1
# Chain of Mitogen-activated protein kinase kinase kinase 1 (Q13233 whole entry): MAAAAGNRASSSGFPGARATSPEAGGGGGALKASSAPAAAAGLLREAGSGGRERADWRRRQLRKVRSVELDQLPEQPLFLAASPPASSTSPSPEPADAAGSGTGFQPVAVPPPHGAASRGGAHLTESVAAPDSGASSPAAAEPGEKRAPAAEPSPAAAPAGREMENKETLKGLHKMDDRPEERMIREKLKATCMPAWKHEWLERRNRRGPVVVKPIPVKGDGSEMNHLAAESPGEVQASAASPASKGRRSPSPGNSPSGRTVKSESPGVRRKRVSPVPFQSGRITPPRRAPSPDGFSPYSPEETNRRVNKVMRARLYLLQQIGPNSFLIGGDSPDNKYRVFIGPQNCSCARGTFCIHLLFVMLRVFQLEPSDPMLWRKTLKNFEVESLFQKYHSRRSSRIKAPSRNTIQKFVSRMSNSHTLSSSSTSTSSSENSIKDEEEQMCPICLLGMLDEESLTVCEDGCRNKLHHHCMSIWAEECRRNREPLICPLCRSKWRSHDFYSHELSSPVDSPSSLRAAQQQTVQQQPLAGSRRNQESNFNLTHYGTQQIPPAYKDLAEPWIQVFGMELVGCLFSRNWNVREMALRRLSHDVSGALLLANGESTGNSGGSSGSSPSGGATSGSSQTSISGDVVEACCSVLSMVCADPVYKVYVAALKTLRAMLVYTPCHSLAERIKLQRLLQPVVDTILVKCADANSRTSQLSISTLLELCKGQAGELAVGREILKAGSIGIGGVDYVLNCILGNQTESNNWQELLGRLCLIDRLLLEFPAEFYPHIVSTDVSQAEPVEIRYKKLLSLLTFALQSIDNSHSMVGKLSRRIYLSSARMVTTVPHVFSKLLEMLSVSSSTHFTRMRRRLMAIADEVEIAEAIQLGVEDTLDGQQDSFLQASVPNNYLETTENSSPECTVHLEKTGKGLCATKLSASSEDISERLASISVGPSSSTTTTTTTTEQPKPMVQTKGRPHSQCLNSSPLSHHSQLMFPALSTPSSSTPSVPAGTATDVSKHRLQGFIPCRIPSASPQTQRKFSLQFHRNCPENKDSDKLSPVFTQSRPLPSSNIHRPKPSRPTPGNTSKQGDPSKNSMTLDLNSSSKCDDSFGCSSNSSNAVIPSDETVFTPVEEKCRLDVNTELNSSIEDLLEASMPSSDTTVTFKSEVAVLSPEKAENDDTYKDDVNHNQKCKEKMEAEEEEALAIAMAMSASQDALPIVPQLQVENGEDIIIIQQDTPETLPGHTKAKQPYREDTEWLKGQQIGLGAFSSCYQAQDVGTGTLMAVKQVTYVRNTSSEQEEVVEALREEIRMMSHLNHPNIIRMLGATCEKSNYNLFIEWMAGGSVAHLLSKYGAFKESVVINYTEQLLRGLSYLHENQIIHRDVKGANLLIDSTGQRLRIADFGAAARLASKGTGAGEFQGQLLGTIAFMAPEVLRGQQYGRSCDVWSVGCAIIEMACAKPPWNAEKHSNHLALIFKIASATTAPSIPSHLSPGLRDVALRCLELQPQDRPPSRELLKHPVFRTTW
# [10] = physchem; conditions: buffer, pH 7.4
# Description: Lipophilicity, log D of the compound at pH 7.4
# [11] = target: T3, Mitogen-activated protein kinase kinase kinase 5 (Homo sapiens, UniProt Q99683); assay: Competitive inhibition of human recombinant N-terminal FLAG-tagged ASK1 expressed in baculovirus infected […] cells after 60 mins by scintillation counting analysis in presence of [gamma-33P]ATP
# T3 sequence (Q99683 whole entry): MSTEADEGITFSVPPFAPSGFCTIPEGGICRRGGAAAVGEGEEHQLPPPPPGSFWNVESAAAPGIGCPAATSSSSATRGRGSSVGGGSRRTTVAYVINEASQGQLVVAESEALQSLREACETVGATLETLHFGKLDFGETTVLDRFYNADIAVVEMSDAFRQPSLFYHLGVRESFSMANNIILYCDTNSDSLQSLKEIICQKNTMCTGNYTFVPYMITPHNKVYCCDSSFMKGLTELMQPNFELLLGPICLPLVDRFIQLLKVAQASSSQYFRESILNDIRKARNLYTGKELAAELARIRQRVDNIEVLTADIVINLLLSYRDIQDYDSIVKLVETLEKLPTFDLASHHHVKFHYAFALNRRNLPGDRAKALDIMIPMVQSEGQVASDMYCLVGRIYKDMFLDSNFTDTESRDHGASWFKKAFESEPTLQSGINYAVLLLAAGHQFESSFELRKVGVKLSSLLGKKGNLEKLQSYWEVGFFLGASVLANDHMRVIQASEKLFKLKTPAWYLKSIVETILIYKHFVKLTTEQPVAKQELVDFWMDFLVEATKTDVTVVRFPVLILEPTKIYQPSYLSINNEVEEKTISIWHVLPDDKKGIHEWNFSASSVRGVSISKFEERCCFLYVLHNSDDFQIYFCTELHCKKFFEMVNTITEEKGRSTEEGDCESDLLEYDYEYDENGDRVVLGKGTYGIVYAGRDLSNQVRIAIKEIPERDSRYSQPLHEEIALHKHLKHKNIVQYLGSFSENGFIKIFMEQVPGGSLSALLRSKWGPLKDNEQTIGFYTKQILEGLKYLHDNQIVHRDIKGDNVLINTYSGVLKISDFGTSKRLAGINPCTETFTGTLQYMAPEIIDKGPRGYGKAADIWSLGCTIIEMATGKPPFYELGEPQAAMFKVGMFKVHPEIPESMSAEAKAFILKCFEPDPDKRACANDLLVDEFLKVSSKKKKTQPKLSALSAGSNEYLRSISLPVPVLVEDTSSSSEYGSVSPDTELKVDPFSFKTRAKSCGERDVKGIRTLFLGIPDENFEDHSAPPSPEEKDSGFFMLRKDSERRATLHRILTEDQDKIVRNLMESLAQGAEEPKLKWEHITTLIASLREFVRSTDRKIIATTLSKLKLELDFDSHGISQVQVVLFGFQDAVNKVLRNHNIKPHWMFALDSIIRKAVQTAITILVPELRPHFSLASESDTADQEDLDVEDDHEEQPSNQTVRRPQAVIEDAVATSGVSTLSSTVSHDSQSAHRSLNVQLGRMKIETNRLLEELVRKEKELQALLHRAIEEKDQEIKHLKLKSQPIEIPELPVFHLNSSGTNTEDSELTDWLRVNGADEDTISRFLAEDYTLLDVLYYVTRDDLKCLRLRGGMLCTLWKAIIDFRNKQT
# [12] = system: INS1; assay: Inhibition of ASK1 in rat INS1 ([…]) cells assessed as downregulation of streptozotocin-induced p38 phosphorylation incubated for 1 hr prior to streptozotocin induction measured after 1 hr by Western blot analysis; type: cell-based
# [13] = system: INS1; assay: Inhibition of ASK1 in rat INS1 ([…]) cells assessed as downregulation of streptozotocin-induced JNK phosphorylation at 0.3 to 10 uM incubated for 1 hr prior to streptozotocin induction measured after 1 hr by Western blot analysis; type: cell-based
# Chain of Glycogen synthase kinase-3 beta (P49841 whole entry): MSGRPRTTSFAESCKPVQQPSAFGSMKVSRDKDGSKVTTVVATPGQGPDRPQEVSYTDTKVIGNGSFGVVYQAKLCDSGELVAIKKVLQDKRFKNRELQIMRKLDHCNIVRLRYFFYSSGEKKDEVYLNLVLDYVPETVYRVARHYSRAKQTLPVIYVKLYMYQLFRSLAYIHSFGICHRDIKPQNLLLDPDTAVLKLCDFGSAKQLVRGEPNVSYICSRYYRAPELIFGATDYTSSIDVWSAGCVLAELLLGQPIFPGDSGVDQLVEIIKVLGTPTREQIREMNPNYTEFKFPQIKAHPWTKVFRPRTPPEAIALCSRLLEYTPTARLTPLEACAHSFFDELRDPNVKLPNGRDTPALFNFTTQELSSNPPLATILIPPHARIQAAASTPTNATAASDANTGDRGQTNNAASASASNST
smiles,measurement,setting,value
CC(C)(C)c1ccc(C(=O)Nc2cn3cc(-n4ccnc4)ccc3n2)cc1 [listing 1 of 3 here],IC50,[1],> 10000 nM
same,IC50,[2],> 10000 nM
same,IC50,[3],> 10000 nM
same,IC50,[4],> 10000 nM
same,IC50,[5],> 10000 nM
same,IC50,[6],> 10000 nM
same,IC50,[7],> 10000 nM
same,IC50,[8],510 nM
same,IC50,[9],> 10000 nM
CC(C)(C)c1ccc(C(=O)Nc2cn3cc(-c4cccnc4)ccc3n2)cc1,logD,[10],3.6
same,IC50,[11],21 nM
Cc1ccc2nc(NC(=O)c3ccc(C(C)(C)C)cc3)cn2c1,logD,[10],3.78
same,IC50,[11],22 nM
CC(C)(C)c1ccc(C(=O)Nc2cn3cc(-n4cccc4)ccc3n2)cc1,IC50,[11],30 nM
CC(C)(O)c1ccc(C(=O)Nc2cn3cc(-n4ccnc4)ccc3n2)cc1,logD,[10],1.27
same,IC50,[11],70 nM
CC(C)(C)c1ccc(C(=O)Nc2cn3cc(-n4ccnc4)ccc3n2)cc1 [listing 2 of 3 here],logD,[10],3.16
CC(C)(CO)c1ccc(C(=O)Nc2cn3cc(-n4ccnc4)ccc3n2)cc1,logD,[10],1.62
same,IC50,[11],32 nM
CC(C)(C)c1ccc(C(=O)Nc2cn3cc(Cl)ccc3n2)cc1,logD,[10],4.04
same,IC50,[11],16 nM
CC(C)(C)c1ccc(C(=O)Nc2cn3cc(-c4ccccc4)ccc3n2)cc1,logD,[10],4.83
same,IC50,[11],82 nM
CC(C)(C)c1ccc(C(=O)Nc2cn3cc(-n4ccnc4)ccc3n2)cc1 [listing 3 of 3 here],inhibition,[12],Dose-dependent effect
same,inhibition,[13],Active
CC(C)(C)c1ccc(C(=O)Nc2cn3cc(CO)ccc3n2)cc1,logD,[10],2.83
same,IC50,[11],129 nM
CC(C)(C)c1ccc(C(=O)Nc2cn3cc(F)ccc3n2)cc1,logD,[10],3.55
same,IC50,[11],34 nM
Cc1ccc2nc(NC(=O)c3ccc(C(C)(C)C)cc3)sc2c1,logD,[10],5.08
same,IC50,[11],260 nM
CNCc1ccc2nc(NC(=O)c3ccc(C(C)(C)C)cc3)cn2c1,logD,[10],2.4
same,IC50,[11],870 nM
CC(C)(C)c1ccc(C(=O)Nc2cn3cc(Br)ccc3n2)cc1,logD,[10],4.17
same,IC50,[11],21 nM
